The test system of data set [1] is CCl4-induced hepatotoxicity. In words: Protection against CCl4-induced hepatotoxicity (mice). It counts as in vivo, mice (four-week-old male, dd strain). Conditions: 250 mg/kg oral, average of 5 to 6 mice; for Liver damage index: CCl4 0.05 ml/kg oral after 6 h, 24 h after CCl4, scale 0 Normal, 2 Slightly recognized, 4 Clearly observable damage, 6 Heavy damage, CCl4 alone 5.2, control 0; for p-GPT: plasma, 24 h after CCl4 0.05 ml/kg oral, values over 1,000 regarded as 1,000, CCl4 alone >1,000, control 35. The source says: Carbon tetrachloride (CCl4) administration induces centrilobular necrosis of the liver associated with loss of diphosphopyridine nucleotide, hepatic glycogen, coenzyme A and increase in neutral fat. Release of several enzymes from the hepatocytes, and increase of enzyme activities in the plasma are recognized as the result of the damage of the liver. A suitable means for evaluating the degree of damage induced by CCl4 or the degree of protection afforded by drugs is to study the plasma glutamic-pyruvic transaminase(p-GPT) activity.
Methods: The test compounds were dissolved or suspended in olive oil and administered orally at the dose of 250 mg/kg to the mice (Four-week-old male mice-dd strain). After 6 hours, CCl4 was administered orally (0.05 ml/kg as olive oil solution). Animals were killed 24 hours after CCl4 administration, and the liver was grossly observed. The plasma was obtained by centrifugation. Activities of p-GPT were determined by the method of Reitman and Frankels and expressed in Karmen units. Score for liver damage index was as follows:
Each figure indicates average of 5 to 6 mice. Values of p-GPT over 1,000 Karmen unit regarded as 1,000 for calculation of average for convenience.

The test system of data set [2] is alcohol metabolic function of liver. In words: Effect on concentration of ethylalcohol in the blood (mice). The class given is in vivo. As to conditions: 250 mg/kg oral pre-treatment, ethylalcohol 1,000 mg/kg oral after 6 h. The procedure: The test compounds are dissolved or suspended in olive oil and administered orally at the dose of 250 mg/kg to the mice. After 6 hours, 1,000 mg/kg of ethylalcohol was given orally. Blood was taken in a capillary from caudal vein at the time indicated in the results. The plasma was obtained by centrifugation. The concentration of ethylalcohol in the plasma was measured by FID type gas liquid chromatography. Five mice were used for each group.

Data set [3] relates to thioacetamide-induced hepatotoxicity. In words: Therapeutic effect against thioacetamide-induced hepatotoxicity, BSP test (rats). It counts as in vivo, rats (Sprague Dawley strain). The procedure:
In the tests of this Example, TAA was repeatedly administered to animals to prepare test animals suffering from somewhat chronic liver damages, and then the present compounds were administered thereto to know whether or not the compounds were effective against chronic hepatitis.
The degree of the liver damage and the therapeutic effects of the compounds were evaluated according to BSP test. The BSP test is a method in which BSP (sulfobromophthalein sodium), a dye known to be quickly metabolized in and excreted from the liver, is intravenously injected into animals and, after a definite period of time, the blood is taken out to measure the amount of BSP remaining in the plasma. In case the animals are suffering from the liver damage, the dye will remain, according to the degree of the damage, at the stage where a major portion of BSP is metabolized and excreted in the case of normal animals. Five groups of rats (Sprague Dawley strain) were treated as follows:
Group A: The rats were orally administered with 100 mg/kg of thioacetamide,at 3 days intervals for 36 days (12 times of the administration), then were submitted for 10 days to a normal diet.
Group B: The rats were orally administered with 100 mg/kg of thioacetamide at 3 days intervals for 36 days (12 times of the administration), then were submitted for 10 days to the normal diet + 0.2% of compound 4.
Group C: The rats were orally administered with 100 mg/kg of thioacetamide at 3 days intervals for 36 days (12 times of the administration) then were submitted for 10 days to the normal diet + 0.2% of compound 2.
Group D: The rats were orally administered with 100 mg/kg of thioacetamide at 3 days intervals for 36 days((12 times of the administration) then were submitted for 10 days to the normal diet + 0.2% of anethol trithion.
Group E: The rats were submitted to the normal diet as the control.
Five rate were sacrificed from each group at appropriate intervals for BSP (sulfobromophthalein) test, the results of which were shown as amounts (mg) of BSP remaining in 1 dl of plasma.

Data set [4] is described as follows: Acute oral toxicity (LD50) to male mice. Conditions: mouse, in vivo. The procedure: For example the LD50 values of the compounds 4, 11 and 17 in Table 1 are more than 5,000 mg/kg. Further, these compounds have no detrimental effects on test animals administered therewith, so far as the doses thereof are within an ordinary administration range.
For data set [5], the system named is glucose metabolic function of liver. In words: Effect on glucose metabolism, blood sugar (mice). The class given is in vivo. As to conditions: 250 mg/kg oral pre-treatment, glucose 4.0 g/kg oral after 6 h. The procedure: Methods: The test compounds dissolved in olive oil and administered orally at the dose of 250 mg/kg to the mice. After 6 hours, 4.0 g/kg of glucose was orally administered. The same amount of glucose was given to the control animals. 0.02 ml of blood was taken from caudal vein of the mice at 30, 60, 90 and 120 min. after glucose administration. Blood sugar was measured by the procedure of SomogyiNelson. Number of animals used was 5 to 6 mice for each treatment.

Setting [6] is: 2 days of normal diet + 0.2% compound after 12 TAA administrations, TAA only 12.7±3.7, normal 0.4±0.1.
Where [7] appears, read: 5 days of normal diet + 0.2% compound after 12 TAA administrations, TAA only 8.7±1.9.
Setting [8] is: 10 days of normal diet + 0.2% compound after 12 TAA administrations, TAA only 1.4±0.4, normal 0.6±0.1.

As usually defined, the LD50 is the dose at which mortality reaches 50%. High values mean lower toxicity, low ones greater toxicity.

Some results are limits rather than exact numbers.

Consider `CCOC(=O)C(C(=O)OCC)=C1SCCCCS1` [Compound 15], for which, in data set [1], the Liver damage index came out at 3.2 and the p-GPT is listed as 533 Karmen units.

`CCOC(=O)C(C(=O)OC(C)C)=C1SCS1` [Compound 7]: in data set [1], the Liver damage index is given as 0.6 and the p-GPT turned out to be 54 Karmen units.

In data set [1], `CCCCCOC(=O)C(C(=O)OCCCCC)=C1SCCCCS1` [Compound 19] showed a Liver damage index of 0.7 and a p-GPT of 157 Karmen units.

Turning to `CCOC(=O)C(C(=O)OC(C)CC)=C1SCCCCS1` (stereo not drawn) [Compound 20], the “Concentration of Ethylalcohol in Plasma” value in data set [2] (0 min, control 27 ± 17) is listed as 15 ± 2 ppm; in data set [2] (5 min, control 875 ± 203) it was 710 ± 134 ppm; in data set [2] (15 min, control 810 ± 191), 652 ± 143 ppm; in data set [2] (30 min, control 690 ± 214), 404 ± 93 ppm; in data set [2] (60 min, control 167 ± 76) it was 18 ± 6 ppm. In addition, in data set [1], the Liver damage index stood at 1.0. In data set [1], this compound yielded a p-GPT of 188 Karmen units.

Turning to `CCOC(=O)C(C(=O)OC(C)(C)C)=C1SCCCS1` [Compound 13], in data set [1], the Liver damage index is 1.4 and the p-GPT was found to be 125 Karmen units.

In the case of `COc1ccc(-c2cc(=S)ss2)cc1` [Anetol trithion, anethol trithion, reference compound], the “BSP remaining in plasma” value in data set [3] (setting [6]) stood at 9.7 ± 4.1 mg/dL; in data set [3] (setting [7]), 7.3 ± 3.4 mg/dL; in data set [3] (setting [8]), 0.9 ± 0.1 mg/dL. Further, in data set [1], the Liver damage index is on record as 1.6. In data set [1], this compound came in with a p-GPT of 38 Karmen units.

Consider `CCCOC(=O)C(C(=O)OCCC)=C1SCS1` [Compound 3, Di-n-propyl 1,3-dithietan-2-ylidene malonate], for which, in data set [1], the Liver damage index was 0.2 and the p-GPT stood at 22 Karmen units.

In data set [1], `CCCCOC(=O)C(C(=O)OCCCC)=C1SCS1` [Compound 5] gave a Liver damage index of 1.2 and a p-GPT of 158 Karmen units.

With `CC(C)OC(=O)C(C(=O)OC(C)C)=C1SCCCS1` [Compound 11, Diisopropyl 1,3-dithian-2-ylidene malonate], the 50% lethal dose (LD50) in data set [4] was more than 5000 mg/kg. Further, in data set [1], the Liver damage index was 2.3 and the p-GPT was 215 Karmen units.

In data set [1], `CCOC(=O)C(C(=O)OCC)=C1SCCCS1` [Compound 9] displayed a Liver damage index of 2.2 and a p-GPT of 366 Karmen units.

In data set [4], `CC(C)OC(=O)C(C(=O)OC(C)C)=C1SCCCCS1` [Compound 17, diisopropyl 1,3-dithiepan-2-ylidene malonate] showed an LD50 of more than 5000 mg/kg. Also, in data set [1], the Liver damage index is reported as 3.6 and the p-GPT is recorded as 688 Karmen units.

Regarding `CCCOC(=O)C(C(=O)OCCC)=C1SCCCCS1` [Compound 16], in data set [1], the Liver damage index was found to be 3.0 and the p-GPT was found to be 710 Karmen units.

`CCOC(=O)C(C(=O)OCC)=C1SCS1` [Compound 2]: the “Concentration of Ethylalcohol in Plasma” value in data set [2] (0 min, control 27 ± 17) turned out to be 11 ± 4 ppm; in data set [2] (5 min, control 875 ± 203) it was 714 ± 167 ppm; in data set [2] (15 min, control 810 ± 191), 655 ± 102 ppm; in data set [2] (30 min, control 690 ± 214), 426 ± 101 ppm; in data set [2] (60 min, control 167 ± 76) it was 15 ± 10 ppm. Besides, the “BSP remaining in plasma” value in data set [3] (setting [6]) is 7.5 ± 1.2 mg/dL; in data set [3] (setting [7]), 3.8 ± 0.4 mg/dL; in data set [3] (setting [8]), 0.7 ± 0.1 mg/dL. The “Blood Sugar” value in data set [5] (0 min, control 145 ± 11.8) is 142 ± 22.8 mg/dL; in data set [5] (30 min, control 311 ± 21.9), 258 ± 17.5 mg/dL; in data set [5] (60 min, control 290 ± 14.6), 229 ± 18.7 mg/dL; in data set [5] (90 min, control 263 ± 13.1) it was 183 ± 18.1 mg/dL; in data set [5] (120 min, control 251 ± 13.5) it was 150 ± 20.4 mg/dL. The compound further had a Liver damage index in data set [1] of 0.3. Moreover, the p-GPT in data set [1] is recorded as 29 Karmen units.

`CCCOC(=O)C(C(=O)OCCC)=C1SCCCS1` [Compound 10, Di-n-propyl 1,3-dithian-2-ylidene malonate]: the “Concentration of Ethylalcohol in Plasma” value in data set [2] (0 min, control 27 ± 17) came out at 13 ± 4 ppm; in data set [2] (5 min, control 875 ± 203) it was 753 ± 78 ppm; in data set [2] (15 min, control 810 ± 191), 698 ± 95 ppm; in data set [2] (30 min, control 690 ± 214) it was 451 ± 114 ppm; in data set [2] (60 min, control 167 ± 76), 12 ± 11 ppm. Moreover, the “Blood Sugar” value is 148 ± 14.7 mg/dL in data set [5] (0 min, control 145 ± 11.8); 267 ± 21.2 mg/dL in data set [5] (30 min, control 311 ± 21.9); 222 ± 18.3 mg/dL in data set [5] (60 min, control 290 ± 14.6); 162 ± 14.4 mg/dL in data set [5] (90 min, control 263 ± 13.1); 148 ± 18.8 mg/dL in data set [5] (120 min, control 251 ± 13.5). The compound also registered a Liver damage index in data set [1] of 2.2. Besides, the p-GPT in data set [1] stood at 50 Karmen units.

As to `COC(=O)C(C(=O)OC)=C1SCCCCS1` [Compound 14], in data set [1], the Liver damage index was determined as 3.5 and the p-GPT came out at 762 Karmen units.

For `CCCCOC(=O)C(C(=O)OCCCC)=C1SCCCS1` [Compound 12], in data set [1], the Liver damage index turned out to be 1.8 and the p-GPT stood at 284 Karmen units.

In data set [1], `CCCCCOC(=O)C(C(=O)OCCCCC)=C1SCS1` [Compound 6] displayed a Liver damage index of 1.2 and a p-GPT of 167 Karmen units.

Turning to `COC(=O)C(C(=O)OC)=C1SCCCS1` [Compound 8], in data set [1], the Liver damage index is given as 2.8 and the p-GPT amounted to 437 Karmen units.

In data set [1], `COC(=O)C(C(=O)OC)=C1SCS1` [Compound 1] returned a Liver damage index of 1.5 and a p-GPT of 341 Karmen units.

In data set [1], `NC(=O)CCCCC1CCSS1` (stereo not drawn) [Thioctic acid amide, reference compound] yielded a Liver damage index of 4.8 and a p-GPT of 763 Karmen units.

In the case of `CCCCOC(=O)C(C(=O)OCCCC)=C1SCCCCS1` [Compound 18], in data set [1], the Liver damage index was 0.5 and the p-GPT was 41 Karmen units.

The record behind these values is patent US4022907A, “Pharmaceutical compositions containing 1,3-dithiacycloalkylidene malonates” (Nihon Nohyaku Co. Ltd., priority 1975, dated 1977).
